Values after ≈ are worked out from the molar mass of the structure shown.
Tests used:
[1] = test system: Escherichia coli 01:K1:H7 JCM 1649; assay: MIC/MBC by viable count after 1 day cultivation; assay type: cell-based; conditions: LB medium, 37° C.
Protocol: (§1) Bacillus cereus was inoculated into a sensitive measurement medium (manufactured by Nissui Pharmaceutical Co., Ltd., Tokyo, Japan), and other bacteria such as food poisoning bacteria were inoculated into an LB medium (1% polypeptone, 0.5% yeast extract, 0.5% sodium chloride, pH 7.2) and incubated at 37° C. for 1 day.
(§2) Then, after adding predetermined amounts of thionin and EDTA, the bacteria were inoculated so that the concentration of bacteria was about 1×10^6 cells/mL. After cultivating the bacteria for 1 day for other bacteria, the viable count was measured by a method of diluted plate culture. The concentration in which the viable count was decreased to 1/100 or less was defined as minimum bactericidal concentration (MBC) and the concentration in which the viable count was not increased was defined as minimum inhibitory concentration (MIC). The results obtained are shown in Tables 1, 2 and 3, as well as in FIG. 1.

[2] = test system: Salmonella typhimurium JCM 6977; assay: MIC/MBC by viable count after 1 day cultivation; assay type: cell-based; conditions: for MBC: Salmonella enterica; for synergistic effects with thionin, compared with EDTA-2Na: with alpha-type thionin of wheat 10 μg/mL
Protocol: as §1, §2

[3] = test system: Vibrio parahaemolyticus IFO 12711; assay: MIC/MBC by viable count after 1 day cultivation; assay type: cell-based; conditions: LB medium, 37° C.
Protocol: as §1, §2

[4] = test system: Bacillus cereus JCM 2152; assay: MIC/MBC by viable count after 1 day cultivation; assay type: cell-based; conditions: sensitive measurement medium, 37° C.
Protocol: as §1, §2

[5] = test system: Escherichia coli 06 JCM 5491; assay: MIC/MBC by viable count after 1 day cultivation; assay type: cell-based; conditions: for MBC: Escherichia coli; for synergistic effects with thionin, compared with EDTA-2Na: with alpha-type thionin of wheat 10 μg/mL
Protocol: as §1, §2

[6] = test system: Bacillus cereus IFO 15305; assay: MIC/MBC by viable count after 1 day cultivation; assay type: cell-based; conditions: sensitive measurement medium, 37° C.
Protocol: as §1, §2

[7] = test system: Salmonella enteritidis IFO 3313; assay: MIC/MBC by viable count after 1 day cultivation; assay type: cell-based; conditions: LB medium, 37° C.
Protocol: as §1, §2

[8] = target: T1, trypsin (Bos taurus, UniProt P00760); conditions: cited from earlier work
T1 construct: gene PRSS1
T1 sequence (P00760 24-246): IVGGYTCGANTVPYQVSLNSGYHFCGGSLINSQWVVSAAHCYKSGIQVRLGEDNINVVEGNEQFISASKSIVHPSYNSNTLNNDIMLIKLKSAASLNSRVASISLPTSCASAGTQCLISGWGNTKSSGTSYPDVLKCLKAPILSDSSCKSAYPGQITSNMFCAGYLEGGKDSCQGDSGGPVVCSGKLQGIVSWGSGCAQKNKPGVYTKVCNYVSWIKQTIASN

[9] = test system: guinea pig; conditions: administered once with 103 to 229 mg/kg body weight, observed for 7 days; cited from earlier work
[10] = test system: E. coli; conditions: high concentration (10 mM); cited from earlier work
[11] = test system: V. parahaemolyticus; conditions: high concentration (10 mM); cited from earlier work
[12] = as food additive; cited from earlier work
[13] = test system: test bacteria (food poisoning bacteria); assay: MIC/MBC, text summary over the test bacteria; assay type: cell-based; conditions: for MBC: added alone
Protocol: as §1, §2

[14] = thionin added alone, LB medium, 37° C., 1 day
[15] = EDTA-2Na added alone, LB medium, 37° C., 1 day

## thionin [reference compound]
[1]; thionin added alone
  MIC Thionin: 100< μg/mL
[2]; [14]
  MIC Thionin: 30 µg/mL
[3]; thionin added alone
  MIC Thionin: 20 µg/mL
[4]; thionin added alone
  MIC Thionin: 100 µg/mL
[5]; [14]
  MIC Thionin: 100 µg/mL
[6]; thionin added alone
  MIC Thionin: 100< μg/mL
[7]; thionin added alone
  MIC Thionin: 100< μg/mL
[8]
  decomposition by a digestive enzyme: rapid decomposition
[9]
  abnormality after administration: no abnormality was observed

## O=C(O)CN(CCN(CC(=O)O)CC(=O)O)CC(=O)O [EDTA, ethylenediaminetetraacetic acid]
[2]; Thionin (10 μg/mL) +: with alpha-type thionin of wheat
  MBC: 0.0001 µM (≈ 0.0292 ng/mL)
[2]; Thionin (10 μg/mL) −: without alpha-type thionin of wheat
  MBC: 0.005 µM (≈ 1.46 ng/mL)
[2]
  synergistic effects with thionin, compared with EDTA-2Na: identical to or higher than that of EDTA-2Na
[5]; JCM5491, Thionin (10 μg/mL) +: with alpha-type thionin of wheat
  MBC: 0.001 µM (≈ 0.292 ng/mL)
[5]; JCM5491, Thionin (10 μg/mL) −: without alpha-type thionin of wheat
  MBC: 0.005 µM (≈ 1.46 ng/mL)
[5]
  synergistic effects with thionin, compared with EDTA-2Na: identical to or higher than that of EDTA-2Na
[10]
  antibacterial activity: shows antibacterial activity
[11]
  antibacterial activity: shows antibacterial activity
[12]
  ADI (Acceptable Daily Intake): 2.5 mg/kg body weight

## O=C([O-])CN(CCN(CC(=O)[O-])CC(=O)[O-])CC(=O)[O-].[Na+].[Na+].[Na+].[Na+] [EDTA-4Na, EDTA-tetrasodium salt]
[2]
  synergistic effects with thionin, compared with EDTA-2Na: identical to or higher than that of EDTA-2Na
[5]
  synergistic effects with thionin, compared with EDTA-2Na: identical to or higher than that of EDTA-2Na

## O=C([O-])CN(CCN(CC(=O)[O-])CC(=O)O)CC(=O)O.[Na+].[Na+] [EDTA-2Na, EDTA disodium]
[1]; EDTA-2Na added alone
  MBC EDTA-2Na: 50000 µM
[2]; [15]
  MBC EDTA-2Na: 20000 µM
[3]; EDTA-2Na added alone
  MBC EDTA-2Na: 1000 µM
[4]; EDTA-2Na added alone
  MBC EDTA-2Na: 500 µM
[5]; [15]
  MBC EDTA-2Na: 10000 µM
[6]; EDTA-2Na added alone
  MBC EDTA-2Na: 200 µM
[7]; EDTA-2Na added alone
  MBC EDTA-2Na: 50< mM
[13]; 10 μg/mL alpha-type thionin of wheat added simultaneously, food poisoning bacteria
  MBC of EDTA-2Na as compared with the addition of EDTA-2Na alone: decreased
[13]; Salmonella sp. and E. coli
  MBC: ≥ 10000 µM
[13]; other bacteria (not Salmonella sp., E. coli)
  MBC: ≤ 1000 µM
